Literature values as cited in patent US9445622B2, “Compositions and methods for improving creatine solubility and stability” (Glanbia Nutritionals (Ireland) Ltd., priority 2009, dated 2016).

Conditions: solid form, over years, even at elevated temperatures

## CN(CC(=O)O)C(=N)N.O [creatine monohydrate powder, creatine monohydrate]
  stability of solid powder: no signs of degradation
